This experiment relates to Pten^L/L prostate cancer mouse model. Kind of experiment: Pharmacological treatment of Pten^L/L mice (preclinical trial; IHC, immunofluorescence, histology, MRI, lymph node metastasis). It is filed as in vivo. The note with it: 28 days, RAD001 10 mg/kg daily. The source says: Weight measurements were taken every 3 days to monitor for toxicity. For the 28-day study, mice were imaged via MRI at day 0 and day 28 in a 14-T GE MR scanner (GE Healthcare).
Whole mouse prostates were removed from wild-type and Pten^L/L mice, microdissected, and frozen in liquid nitrogen. Frozen tissues were subsequently manually disassociated using a biopulverizer (Biospec) and additionally processed for protein and mRNA analysis as described above.
Prostates and lymph nodes were dissected from mice within 2 hr of the indicated treatment and fixed in 10% formalin overnight at 4° C. Tissues were subsequently dehydrated in ethanol (Sigma) at room temperature, mounted into paraffin blocks, and sectioned at 5 μm. Specimens were de-paraffinized and rehydrated using CitriSolv (Fisher) followed by serial ethanol washes. […] Sections were washed in distilled water followed by TBS washes. The sections were then incubated in 5% goat serum, 1% BSA in TBS for 1 hr at room temperature. Various primary antibodies were used, including those specific for keratin 5 (Covance), cytokeratin 8 (Abcam and Covance), YB1 (Abcam), vimentin (Abcam), MTA1 (Cell signaling), CD44 (BD Pharmingen), and the androgen receptor (Epitomics), which were diluted 1:50-1:500 in blocking solution and incubated on sections overnight at 4° C. Specimens were then washed in TBS and incubated with the appropriate Alexa 488 and 594 labeled secondary (Invitrogen) at 1:500 for 2 hr at room temperature, with the exception of YB1 which was incubated with biotinylated anti-rabbit secondary (Vector) followed by incubation with Alexa 594 labeled Streptavidin (Invitrogen). A final set of washes in TBS was completed at room temperature followed by mounting with DAPI Hardset Mounting Medium (Vector Lab). A Zeiss Spinning Disc confocal (Zeiss, CSU-X1) was used to image the sections at 40×-100×. Individual prostate cells were quantified for mean fluorescence intensity (m.f.i.) using the Axiovision (Zeiss, Release 4.8) densitometric tool.
Mouse lymph nodes were processed as described above and stained for CK8 and androgen receptor. Lymph nodes were imaged using a Zeiss AX10 microscope. Metastases were identified and areas were measured using the Axiovision (Zeiss, Release 4.8) measurement tool.
Immunohistochemistry was performed as described above (see “Immunofluorescence”) with the exception that immediately after antigen […] and TBS washes, specimens were incubated in 3% hydrogen peroxide in TBS followed by TBS washes. The following primary antibodies were used: phospho-AKT^S473 (Cell Signaling), phospho-rpS6^S240/244 (Cell Signaling), phospho-4EBP1^T37/46 (Cell Signaling), phospho-histone H3 (Upstate), and cleaved caspase (Cell Signaling). […] The protein of interest was detected using DAB (Sigma). […]

Where [1] appears, read: ATP site inhibitor of mTOR 1 mg/kg daily.

The record followed here is US20190093170A1, “USE OF TRANSLATIONAL PROFILING TO IDENTIFY TARGET MOLECULES FOR THERAPEUTIC TREATMENT” (THE REGENTS OF THE UNIVERSITY OF CALIFORNIA, priority 2013, published 2019).

For the compound `CO[C@H]1C[C@@H]2CC[C@@H](C)[C@@](O)(O2)C(=O)C(=O)N2CCCC[C@H]2C(=O)O[C@H]([C@H](C)C[C@@H]2CC[C@@H](OCCO)[C@H](OC)C2)CC(=O)[C@H](C)/C=C(\C)[C@@H](O)[C@@H](OC)C(=O)[C@H](C)C[C@H](C)/C=C/C=C/C=C/1C` [RAD001], the “regression of PIN lesions” value is given as “only partial regression of PIN lesions”. Under setting [1], the “4EBP1 and p70S6K1/2 phosphorylation” value was “only decreased p70S6K1/2 phosphorylation levels”; the “apoptosis (cleaved caspase 3)” value was “no significant effect”; the “proliferation (phospho-histone H3)” value was “limited decrease in cell proliferation”.
